Measurements as given in article PMC9644403, “L-type Amino Acid Transporter 1 Utilizing Ferulic Acid Derivatives Show Increased Drug Delivery in the Mouse Pancreas Along with Decreased Lipid Peroxidation and Prostaglandin Production” (Molecular Pharmaceutics, 2022).

Columns and labels:
[1] = tested on: malondialdehyde (MDA) formation; assay: Inhibition of lipid peroxidation: MDA formation in tissues of LPS-induced mice; assay type: in vivo, mouse; conditions: LPS 250 μg/kg i.p. 3 days, mean ± SD; for MDA formation in pancreas, preventative treatment: compound 25 μmol/kg i.p. for 3 days and 120 min before sacrifice; for MDA formation in pancreas, curative treatment: compound 25 μmol/kg i.p. only for the last 2 days
Protocol: (§1) According to the results from previous in vitro([18]) efficacy and safety studies and in vivo pharmacokinetics, the efficacy of the FA and the more LAT1-specific derivative, D1 against oxidative stress and lipid peroxidation was evaluated by determining malondialdehyde (MDA) formation in mouse tissues. To induce oxidative stress, mice were administered 250 μg/kg of lipopolysaccharide (LPS) i.p. once per day for 3 consecutive days. On the 4th day, mice were anesthetized using a mixture of ketamine (140 mg/kg) and xylazine (8 mg/kg) and sacrificed by decapitation. Animals were divided into one of four treatment groups (n = 4 per group); (1) LPS only, (2) LPS with the FA or D1 (25 μmol/kg; i.p.) for 3 days and 120 min before the sacrifice on the 4th day (preventative efficacy), (3) LPS with the FA or D1 (25 μmol/kg; i.p.) only for the last 2 days (curative efficacy), or (4) control mice treated with 0.9% NaCl solution i.p. once per day for 3 days. After decapitation, the kidney, liver, and pancreas were rapidly collected, snap-frozen on dry ice, and stored at −80 °C until analyzed.
Pieces of snap-frozen tissues were homogenized 1:10 (w/v) in 50 mM TBS (pH 7.4) containing 0.01% butylated hydroxytoluene by sonicating samples in pulses for 5 s with a SoniPrep 150 Plus disintegrator (MSE Ltd., London, UK). The homogenates were then centrifuged at 10 000 × g for 20 min at 4 °C, and the supernatants were collected for the assays.
MDA was quantified by the derivatization reaction with thiobarbituric acid (TBA) (Sigma, St. Louis, MO, USA), with a previously described protocol.[30] The analysis was carried out with an Agilent 1290 Infinity II LC System (Agilent Technologies, Santa Clara, CA, USA) combined with an Agilent 1290 Infinity II Diode Array Detector. The results were calculated as μmol of formed MDA-TBA2 per mg of tissue.

[2] = tested on: prostaglandin E2 (PGE2) production; assay: Inhibition of prostaglandin E2 production in tissues of LPS-induced mice; assay type: in vivo, mouse; conditions: LPS 250 μg/kg i.p., mean ± SD; for PGE2 in liver, preventative treatment / PGE2 in pancreas, preventative treatment: compound 25 μmol/kg i.p. 3 days and 120 min before sacrifice; for PGE2 in liver, curative treatment / PGE2 in pancreas, curative treatment: compound 25 μmol/kg i.p. last 2 days
Protocol: as §1
The ability of FA and D1 to inhibit prostaglandin E2 (PGE2) production in the mouse kidney, liver, and pancreas was evaluated after the exposure of mice to LPS. The tissue homogenate supernatants (n = 4), prepared as described above in MDA sample preparation (Chapter 2.7), were further diluted 1:5 with 80% MeOH (v/v) solution containing the deuterated internal standard, PGE2-d4 (Cayman Chemical Company, Ann Arbor, MI, USA). To improve the extraction of prostaglandins and precipitation of proteins, the diluted samples were incubated overnight in a freezer (−80 °C). Subsequently, samples were centrifuged at 16 000 × g for 20 min at 4 °C and the supernatants were collected for the LC–MS/MS analysis.
The LC–MS/MS analysis was carried out with a previously described method[30] using an Agilent 1290 Infinity LC System (Agilent Technologies, Waldbronn, Germany) and an Agilent 6495 triple quadrupole mass spectrometer with a heated electrospray ionization source (Agilent Technologies, Palo Alto, CA, USA). Data were collected using Agilent MassHunter Workstation software (version B.06.00) and processed with the Quantitative Analysis (B.07.00) software. The results were calculated as nmol of PGE2 per mg of tissue.

[3] = tested on: human plasma; assay: Coagulation parameters (PT, INR, APTT, TT) in human plasma
Protocol: To assess the safety of the LAT1 derivatives in the human blood circulation system, the basic coagulation parameters, prothrombin time (PT), activated partial thromboplastin time (APTT), thrombin time (TT), and international normalized ratio (INR) were determined from human plasma in the presence of FA, D1, and D2. The parameters were studied using a coagulometer (CoagChrom-3003 Bio-Ksel, Grudziądz, Poland), with the previously described methods.[25],[31] The following reagents were used in the basic coagulation studies: Bio-Ksel System APTT reagent and calcium chloride, Bio-Ksel PT plus reagent (thromboplastin and solvent), and thrombin (3.0 UNIH/mL), (Bio-Ksel, Grudziądz, Poland). The experiments were performed using citrated human plasma. Control samples consisting of drug solvents [distilled water and methanol mixture (1:2 v/v)] were conducted. The methods were validated using normal plasma (Bio-Ksel, Grudziądz, Poland). Coefficients of variability (CV) were counted (n = 5): CV(PT) = 5.34%, CV(APTT) = 2.61%, CV(TT) = 1.82%. Following reference values for each test were applied: PT: 9.7–14.6 s; APTT: 26.7–40.0 s; and TT: 14.0–18.0 s for 3.0 UNIH/mL of thrombin.

[4] = RBC lysis assay (hemolysis); assay type: cell-based; conditions: 2% erythrocyte (RBC) suspension, human RBCs, 37 °C, Triton X = 100%, control 2.08 ± 0.15%, read-out: hemolysis rate
Protocol: (§2) To further evaluate the safety of derivatives in human blood, the effects of FA, D1, and D2 on hemolysis were studied using a previously described protocol.[31] Shortly, freshly collected erythrocytes were washed three times with 1 mL of 0.9% saline (Sigma-Aldrich, Germany). Subsequently, 2% RBC suspension was prepared by diluting 1 mL of erythrocytes in 50 mL of 0.9% saline. FA, D1, and D2 (1–100 μM) were incubated with the RBC suspension at 37 °C for 1 h. Additionally, negative controls containing 0.9% NaCl and positive controls with Triton X-100 (Polish Chemical Reagents, Poland) were studied. After incubation, the samples were centrifuged at 3 000 rpm for 10 min, and the absorbance values were measured from the collected supernatants at the wavelength of 550 nm. Samples with Triton X (positive control) represented 100% hemolysis. Results of the studies are presented as a percentage of released hemoglobin. The counted CV was 8.1% (n = 5). Additionally, the influence of FA and its derivatives (25–100 μM) on RBC morphology was studied using a phase contrast Opta-Tech inverted microscope. The morphology was analyzed using a dedicated OptaView 7 software (Opta-Tech, Warsaw, Poland).

[5] = tested on: human erythrocytes; assay: Erythrocyte morphology, phase-contrast microscopy; assay type: cell-based; conditions: tested 25–100 μM
Protocol: as §2

[6] = previous in vitro bioconversion studies; cited from earlier work
[7] = tested on: LAT1; parameters: method as in PMID 31814871, PMID 35011270; conditions: previous uptake mechanism studies; cited from earlier work

Row | SMILES | MDA formation in pancreas, preventative treatment [1] [µmol/mg] | MDA formation in pancreas, curative treatment [1] [µmol/mg] | PGE2 in liver, preventative treatment [2] [nmol/mg] | PGE2 in pancreas, preventative treatment [2] [nmol/mg] | PGE2 in liver, curative treatment [2] [nmol/mg] | PGE2 in pancreas, curative treatment [2] [nmol/mg] | effect on APTT ([3]; 100 μM) | hemolysis at 1 h, 100 µM [4] [%] | concentration at which anisocytosis with formation of macrocytes was observed [5] [µM] | concentration at which few stomatocytes were detected [5] [µM] | release of FA in the mouse liver [6] | effect on INR [3] | prothrombin time (PT) ([3]; 100 μM, control 13.2 ± 1.3 s) [s] | concentration at which formation of echinocytes was observed [5] [µM] | affinity toward LAT1 compared to the secondary transport mechanism [7] | overall uptake speed compared to D1 [7] [times]
1 | COc1cc(C=CC(=O)NCc2cccc(CC(N)C(=O)O)c2)ccc1O (stereo not shown) [derivative 1] | 0.46 ± 0.47 | 0.44 ± 0.39 | 15.95 ± 9.61 | 24.51 ± 15.99 | 48.55 ± 14.50 | 23.51 ± 8.81 | prolonged the APTT | 3.58 ± 0.69 | 50 to 100 | 100 | neither D1 nor D2 released FA |  |  |  |  | 
2 | COc1cc(C=CC(=O)O)ccc1O [ferulic acid, 4-hydroxy-3-methoxycinnamic acid] | 0.94 ± 0.41 | 1.04 ± 0.29 | 25.41 ± 6.35 | 57.56 ± 51.63 | 37.07 ± 10.02 | 54.68 ± 22.02 |  | 2.38 ± 1.84 |  |  |  | increased INR | 15.5 ± 0.4 |  |  | 
3 | COc1cc(/C=C/C(=O)Nc2cccc(C[C@H](N)C(=O)O)c2)ccc1O [derivative 2] |  |  |  |  |  |  |  | 1.97 ± 1.25 |  |  | neither D1 nor D2 released FA |  |  | 50 to 100 | over 20 times | 1.5
